Source: paper PMC4317577, “Synthetic Covalently Linked Dimeric Form of H2 Relaxin Retains Native RXFP1 Activity and Has Improved In Vitro Serum Stability” (BioMed Research International, 2015)

Legend:
[1] = cited from earlier work
Experimental: Nearly 9 decades since its discovery, the pleotropic peptide H2 relaxin recently completed a successful Phase III clinical trial for the treatment of acute heart failure. Despite this important success, the short in vivo half-life of the peptide (10 mins) necessitates its continuous intravenous infusion for optimum activity. As the in vivo half-life of a peptide or protein is affected by both its degradation by enzymes and renal clearance, it can be improved by, for example, conjugation with large MW compounds such as PEG or by polymerization/aggregation ...

[2] = target: T1, human RXFP2 (Homo sapiens, UniProt Q8WXD0); assay: cAMP reporter gene (pCRE β-galactosidase) assay in RXFP2 expressing HEK-293T cells; format: cell-based; conditions: HEK-293T cells expressing RXFP2, pCRE β-galactosidase reporter, 6 h at 37°C; at least three independent experiments in triplicate
T1 construct: expressed in transfected cells; host or cells: HEK-293T
Experimental: The influence of cAMP signaling by synthetic analogues in HEK-293T cells expressing either human RXFP1 or RXFP2 receptors was assessed using cAMP reporter gene assay as described previously. Briefly, HEK-293T cotransfected with response element pCRE β-galactosidase reporter plasmid were plated out in Corning Cell BIND 96-well plate at 50 000 cells per well per 200 μL. 24 h later, cotransfected cells were treated with increasing concentrations of H2 relaxin analogues in parallel with native H2 relaxin or human INSL3. After 6 h incubation at 37°C, cell media were aspirated and cells were frozen at −80°C overnight. A β-galactosidase colorimetric assay measuring absorbance at 570 nm on Benchmark Plus microplate spectrophotometer (Bio-Rad, Gladesville, Australia) was then used to measure relative cAMP responses. Each concentration point was measured in triplicate and each experiment performed independently at least three times. Ligand-induced stimulation of cAMP was expressed as a percentage of the maximum H2 relaxin response for RXFP1 cells or human INSL3 for RXFP2 cells. GraphPad Prism 5 was used to analyze the cAMP activity assay which was expressed as the mean ± S.E.M. Statistical analysis was conducted using one-way ANOVA with Newman-Keuls post hoc analysis.

[3] = In vitro serum stability; format: in vitro ADME; conditions: 100% human serum; 100% male human serum, not heat inactivated, 37°C; 10.0 μL of 1.0 mg/mL peptide in 590 μL serum; samples 0-6 h, acetonitrile/0.1% TFA quench, RP-HPLC (C4) peak area; triplicate
Experimental: The stability of the synthetic analogue was measured against native H2 relaxin in human serum. The purchased serum was not heat inactivated in order to retain as much of its proteolytic enzymic activity as possible. The peptides tested were normalized to a final concentration of 1.0 mg/mL with deionized water, and 10.0 μL of peptides was added to 590 μL 100% human serum. After addition of peptide into the serum, 50 μL of samples was removed and quenched with 250 μL of ice-cold acetonitrile/0.1% TFA. The solution was then spun down with a benchtop centrifuge at 13,500 rpm (Eppendorf Centrifuge 5804R, Melbourne, Australia) for 15 mins at 4°C to pellet the larger, precipitated serum proteins. The remaining peptide/serum solution was placed immediately into 37°C incubator. Degradation of peptides was monitored with manual RP-HPLC injections of supernatant using a Phenomenex Aeris Widepore 3.6 μm C4 analytical column (pore size, 100 Å; particle size 4.6 × 250 mm), in a stabilized gradient mode with eluent A: 0.1% aq TFA and eluant B: 0.1% TFA in acetonitrile. Samples were taken at time points 0.5, 1.0, 1.5, 2.0, 2.5, 3, 4, 5, and 6 h. […] Nonspecific peptide degradation was measured by peptide degradation in serum at 0 h. […] GraphPad Prism 5 was used to analyze the peptide degradation in serum which was expressed as the mean ratio ± S.E.M. and Microsoft Excel was used to graph all data. […]

T1 sequence (Q8WXD0 whole entry): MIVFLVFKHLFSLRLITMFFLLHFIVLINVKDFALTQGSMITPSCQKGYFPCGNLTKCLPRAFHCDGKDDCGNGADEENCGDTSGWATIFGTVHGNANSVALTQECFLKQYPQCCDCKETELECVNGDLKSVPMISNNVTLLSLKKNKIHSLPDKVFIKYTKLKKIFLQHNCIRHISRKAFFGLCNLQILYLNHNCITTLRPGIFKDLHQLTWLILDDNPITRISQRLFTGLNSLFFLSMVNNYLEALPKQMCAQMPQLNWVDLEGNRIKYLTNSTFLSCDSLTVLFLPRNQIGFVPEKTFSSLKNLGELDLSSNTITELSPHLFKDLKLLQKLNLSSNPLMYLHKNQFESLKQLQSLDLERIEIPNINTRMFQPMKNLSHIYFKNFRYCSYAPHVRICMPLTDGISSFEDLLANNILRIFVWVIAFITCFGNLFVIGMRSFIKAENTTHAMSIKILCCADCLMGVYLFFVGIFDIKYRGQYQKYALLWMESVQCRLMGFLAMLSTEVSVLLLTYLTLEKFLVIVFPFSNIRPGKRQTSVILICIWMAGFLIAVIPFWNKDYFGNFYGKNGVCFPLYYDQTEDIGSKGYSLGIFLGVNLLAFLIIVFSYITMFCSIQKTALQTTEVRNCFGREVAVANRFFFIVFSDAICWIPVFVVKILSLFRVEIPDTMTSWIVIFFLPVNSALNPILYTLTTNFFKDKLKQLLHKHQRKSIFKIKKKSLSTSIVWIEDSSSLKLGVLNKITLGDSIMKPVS

| Molecule | plasma half-life in rabbits [1] | activity in vivo relative to monomer [1] [fold] | cAMP activation at RXFP2 compared with H2 relaxin [2] | half-life at 16.7 µg/mL [3] [h] |
| --- | --- | --- | --- | --- |
| erythropoietin monomer: erythropoietin monomer | 4 h | – | – | – |
| dimeric erythropoietin: dimeric erythropoietin formed by chemical crosslinking of the monomer | more than 24 h | 26 | – | – |
| CC[C@H](C)[C@@H]1NC(=O)[C@H](C)NC(=O)[C@H](CC(C)C)NC(=O)[C@H](CCC(N)=O)NC(=O)[C@H](C)NC(=O)[C@H](CCCNC(=N)N)NC(=O)[C@H](C(C)C)NC(=O)[C@H](CC(C)C)NC(=O)[C@H](CCC(=O)O)NC(=O)[C@H](CCCNC(=N)N)NC(=O)CNC(=O)[C@@H](NC(=O)[C@H](CC(C)C)NC(=O)[C@H](CCCCN)NC(=O)[C@@H](NC(=O)[C@@H](NC(=O)[C@H](CCC(=O)O)NC(=O)[C@H](CCC(=O)O)NC(=O)[C@H](CCSC)NC(=O)[C@H](Cc2c[nH]c3ccccc23)NC(=O)[C@H](CO)NC(=O)[C@H](CC(=O)O)NC(=O)[C@@H](N)Cc2cn(CCOCCOCCOCCOCCOCCOCCOCCn3cc(C[C@H](N)C(=O)N[C@@H](CC(=O)O)C(=O)N[C@@H](CO)C(=O)N[C@@H](Cc4c[nH]c5ccccc45)C(=O)N[C@@H](CCSC)C(=O)N[C@@H](CCC(=O)O)C(=O)N[C@@H](CCC(=O)O)C(=O)N[C@H](C(=O)N[C@H](C(=O)N[C@@H](CCCCN)C(=O)N[C@@H](CC(C)C)C(=O)N[C@H]4CSSC[C@@H]5NC(=O)[C@@H](NC(=O)[C@H](CCCCN)NC(=O)[C@H](CC(N)=O)NC(=O)[C@H](C)NC(=O)[C@H](CC(C)C)NC(=O)[C@H](C)NC(=O)[C@H](CO)NC(=O)[C@H](Cc6ccc(O)cc6)NC(=O)[C@H](CC(C)C)NC(=O)[C@@H]6CCC(=O)N6)CSSC[C@H](NC(=O)CNC(=O)[C@H](C(C)C)NC(=O)[C@H](Cc6c[nH]cn6)NC5=O)C(=O)N[C@@H]([C@@H](C)O)C(=O)N[C@@H](CCCCN)C(=O)N[C@@H](CCCNC(=N)N)C(=O)N[C@@H](CO)C(=O)N[C@@H](CC(C)C)C(=O)N[C@@H](C)C(=O)N[C@@H](CCCNC(=N)N)C(=O)N[C@@H](Cc5ccccc5)C(=O)N[C@H](C(N)=O)CSSC[C@@H](C(=O)NCC(=O)N[C@@H](CCSC)C(=O)N[C@@H](CO)C(=O)N[C@H](C(=O)N[C@@H](Cc5c[nH]c6ccccc56)C(=O)N[C@@H](CO)C(N)=O)[C@@H](C)O)NC(=O)[C@H]([C@@H](C)CC)NC(=O)[C@H](C)NC(=O)[C@H](CC(C)C)NC(=O)[C@H](CCC(N)=O)NC(=O)[C@H](C)NC(=O)[C@H](CCCNC(=N)N)NC(=O)[C@H](C(C)C)NC(=O)[C@H](CC(C)C)NC(=O)[C@H](CCC(=O)O)NC(=O)[C@H](CCCNC(=N)N)NC(=O)CNC4=O)[C@@H](C)CC)C(C)C)nn3)nn2)C(C)C)[C@@H](C)CC)CSSC[C@@H]2NC(=O)[C@@H](NC(=O)[C@H](CCCCN)NC(=O)[C@H](CC(N)=O)NC(=O)[C@H](C)NC(=O)[C@H](CC(C)C)NC(=O)[C@H](C)NC(=O)[C@H](CO)NC(=O)[C@H](Cc3ccc(O)cc3)NC(=O)[C@H](CC(C)C)NC(=O)[C@@H]3CCC(=O)N3)CSSC[C@H](NC(=O)CNC(=O)[C@H](C(C)C)NC(=O)[C@H](Cc3c[nH]cn3)NC2=O)C(=O)N[C@@H]([C@@H](C)O)C(=O)N[C@@H](CCCCN)C(=O)N[C@@H](CCCNC(=N)N)C(=O)N[C@@H](CO)C(=O)N[C@@H](CC(C)C)C(=O)N[C@@H](C)C(=O)N[C@@H](CCCNC(=N)N)C(=O)N[C@@H](Cc2ccccc2)C(=O)N[C@H](C(N)=O)CSSC[C@@H](C(=O)NCC(=O)N[C@@H](CCSC)C(=O)N[C@@H](CO)C(=O)N[C@H](C(=O)N[C@@H](Cc2c[nH]c3ccccc23)C(=O)N[C@@H](CO)C(N)=O)[C@@H](C)O)NC1=O [H2 (PEG)7 H2 dimer] | – | – | significantly weaker activation propensity | 2.52 |
